Data as given in patent publication US20220305178A1, “CANCER TREATMENT BY IN VITRO AMINO ACID DEPRIVATION” (YUANHENG BIOMEDICAL CO., LTD., priority 2021, published 2022).

Assay: Modified peritoneal dialysis with artificial kidneys of different effective membrane areas (Example 4)
Assay type: biochemical
Conditions: for Arg (%) of the peritoneal fluid / Arg (μM) of the peritoneal fluid: non-target amino acid
Protocol: RPMI 1640 Medium was ten times diluted to obtain 1 L of RPMI 1640 diluent with Dianeal PD-2 (Peritoneal Dialysis Solution) and to serve as a peritoneal fluid for the control group 2. 1 L and 2 L of the same RPMI 1640 diluent was prepared for the Experimental group 2 and Experimental group 3, respectively.
The flow rate or circulation speed of the dialysate was 250 ml/min. Before the peritoneal fluid (RPMI 1640 diluent) entered the dialysis machine, RPMI 1640 diluent was also used to clean the circulation pipeline of the dialysis machine, to achieve the required equilibrium of the artificial kidney, and to get rid of all bubbles in the artificial kidney. Besides, the artificial kidneys of the control group 2 and the experimental group 2 were NV-15U with the effective membrane area of 1.5 m^2; and the artificial kidney of the experimental group 3 was NV-21U with the effective membrane area of 2.1 m^2.
The dialysate is DIANEAL PD-2 Peritoneal Dialysis Solution with 1.5% Dextrose (Baxter). The target amino acid is Asparagine (Asn), and the concentration of Asparaginase in the dialysate is 1 K.U./ml in the Experimental groups 2 & 3. No Asparaginase was added in the control group 2.
The dialysis temperature was set to be 37° C. The peritoneal fluid (RPMI 1640 diluent) was first pumped into slot A for temporary storage and then entered the artificial kidney. After peritoneal fluid (RPMI 1640 diluent) left the artificial kidney, peritoneal fluid (RPMI 1640 diluent) further entered slot B for temporary storage, and then left the dialysis machine, e.g. the peritoneal fluid (RPMI 1640 diluent) was pumped back to the peritoneal cavity of the patient. The concentrations of amino acids in the peritoneal fluid before and after dialysis were studied by using Amino Acid Analysis Systems (Waters UPLC® Amino Acid Analysis (AAA) Solution) and the result was shown in Table 3 to Table 5.
Example 4 was carried out with the method the same as Example 3 except that the artificial kidneys with different effective membrane areas were adopted. The concentrations of amino acids in the peritoneal fluid before and after dialysis were studied and the result was shown in Table 6.

[1] = dialyzer BG-1.6U (1.6 m^2), dialysis time 0 min
[2] = dialyzer BG-1.6U (1.6 m^2), dialysis time 3 min
[3] = dialyzer BG-1.6U (1.6 m^2), dialysis time 5 min
[4] = dialyzer BG-1.6U (1.6 m^2), dialysis time 10 min
[5] = dialyzer BG-1.6U (1.6 m^2), dialysis time 20 min
[6] = dialyzer BG-1.8U (1.8 m^2), dialysis time 0 min
[7] = dialyzer BG-1.8U (1.8 m^2), dialysis time 3 min
[8] = dialyzer BG-1.8U (1.8 m^2), dialysis time 5 min
[9] = dialyzer BG-1.8U (1.8 m^2), dialysis time 10 min
[10] = dialyzer BG-1.8U (1.8 m^2), dialysis time 20 min
[11] = dialyzer polyflux-140H (1.4 m^2), dialysis time 0 min
[12] = dialyzer polyflux-140H (1.4 m^2), dialysis time 3 min
[13] = dialyzer polyflux-140H (1.4 m^2), dialysis time 5 min
[14] = dialyzer polyflux-140H (1.4 m^2), dialysis time 10 min
[15] = dialyzer polyflux-140H (1.4 m^2), dialysis time 20 min

Asparaginase
concentration of non-target amino acid maintained (Example 4, artificial kidneys 1.4 to 1.8 m^2): about 50%
Asn (%) of the peritoneal fluid [1]: 100%
Asn (μM) of the peritoneal fluid [1]: 45.5 µM
Asn (%) of the peritoneal fluid [2]: 73.90%
Asn (μM) of the peritoneal fluid [2]: 33.6 µM
Arg (%) of the peritoneal fluid [1]: 100%
Arg (μM) of the peritoneal fluid [1]: 95.3 µM
Arg (%) of the peritoneal fluid [2]: 86.3%
Arg (μM) of the peritoneal fluid [2]: 82.2 µM
Arg (%) of the peritoneal fluid [3]: 74.8%
Arg (μM) of the peritoneal fluid [3]: 71.3 µM
Arg (%) of the peritoneal fluid [4]: 65.8%
Arg (μM) of the peritoneal fluid [4]: 62.7 µM
Arg (%) of the peritoneal fluid [5]: 49.7%
Arg (μM) of the peritoneal fluid [5]: 47.4 µM
Asn (%) of the peritoneal fluid [6]: 100%
Asn (μM) of the peritoneal fluid [6]: 36.7 µM
Arg (%) of the peritoneal fluid [6]: 100%
Arg (μM) of the peritoneal fluid [6]: 89.0 µM
Arg (%) of the peritoneal fluid [7]: 75.1%
Arg (μM) of the peritoneal fluid [7]: 66.8 µM
Arg (%) of the peritoneal fluid [8]: 76.5%
Arg (μM) of the peritoneal fluid [8]: 68.0 µM
Arg (%) of the peritoneal fluid [9]: 61.5%
Arg (μM) of the peritoneal fluid [9]: 54.7 µM
Arg (%) of the peritoneal fluid [10]: 61.2%
Arg (μM) of the peritoneal fluid [10]: 54.4 µM
Asn (%) of the peritoneal fluid [11]: 100%
Asn (μM) of the peritoneal fluid [11]: 36.9 µM
Asn (%) of the peritoneal fluid [12]: 85.8%
Asn (μM) of the peritoneal fluid [12]: 31.6 µM
Asn (%) of the peritoneal fluid [13]: 62.3%
Asn (μM) of the peritoneal fluid [13]: 23.0 µM
Arg (%) of the peritoneal fluid [11]: 100%
Arg (μM) of the peritoneal fluid [11]: 93.7 µM
Arg (%) of the peritoneal fluid [12]: 93.6%
Arg (μM) of the peritoneal fluid [12]: 87.6 µM
Arg (%) of the peritoneal fluid [13]: 84.8%
Arg (μM) of the peritoneal fluid [13]: 79.4 µM
Arg (%) of the peritoneal fluid [14]: 71.4%
Arg (μM) of the peritoneal fluid [14]: 66.9 µM
Arg (%) of the peritoneal fluid [15]: 57.9%
Arg (μM) of the peritoneal fluid [15]: 54.2 µM
